“And” between values parts separate entries of the source, which are not always exact repeats. Equal entries are not always repeated.
Experiments:
[1] = Stability of 2′-FL, LNnT and 6′-SL in an ORC over time (0 D to 14 weeks); assay type: physicochemical; settings: for % Remaining * (6′-SL): vs target fortification
Procedure: Another study was performed to determine the stability of 2′-FL, LNnT, and 6′-SL in an ORC over time (e.g., 1 week, 3 weeks, 6 weeks, and 14 weeks).
Sample Preparation: A master batch with a pH of 4.25 is sub-divided. The oligosaccharides are added to the respective ORC in an amount of 0.2 g/L for 2′-FL and 6′-SL, LNnT was fortified in an amount of 0.256 g/L. The pH was then adjusted from 4.25 to 3.5 by addition of citric acid. Prior to sterilization, samples are collected to evaluate oligosaccharide levels. The formulas were then delivered into 1 L bottles and subjected to heat sterilization and allowed to cool to room temperature.
The data on day 0 was collected in duplicate for samples prior to sterilization (unsterile) and after sterilization (sterile), thereafter the data was collected only on the sterilized samples. […] The slight fluctuation in lactose and lactulose levels are likely due to method variability.
The data on day 0 was collected in duplicate for samples prior to sterilization (unsterile) and after sterilization (sterile), thereafter the data was collected only on the sterilized samples.
The data on day 0 was collected in duplicate for samples prior to sterilization (unsterile) and after sterilization (sterile), thereafter the data was collected only on the sterilized samples. […] At 14 weeks, the concentration was 2.3% of the target fortification amount.

[2] = Stability of oligosaccharides in oral rehydration solution, before/after retort sterilization and 3 weeks after (HPAEC); assay type: physicochemical; settings: for 6′-SL / Lactose / Sialic acid / % Theoretical 6′-SL: 6′-SL sample, pH 3.5; for % Theoretical 6′-SL: fortification 0.2 g/L
Procedure: A study was conducted to determine the relative stabilities of GOS, FOS, 2′-FL, 6′-SL, and LNnT in an oral rehydration solution. A master batch of product was prepared (shown in Table 1), the pH adjusted to approx. 4.25, and subsequently divided into five sub-batches.
Oligosaccharide ingredients were added to each of the sub-batches in amounts shown Table 2, and the pH of each sub-batch was subsequently adjusted to 3.5 with citric acid. The solutions were filled into 1 L plastic bottles, capped and retorted with a cook temperature of 217° F. for 25 minutes. Duplicate samples were collected immediately prior to sterilization and within 24 h after sterilization. Prior to sample analysis, the unsterile samples were stored at refrigerated temperature (˜40° F.) and the sterilized samples were held ambient temperature.
Samples were analyzed by HPAEC using a Dionex ICS3000 Ion Chromatography System (Thermo Scientific, Inc., Sunnyvale, Calif.) equipped with a pulsed amperometric detector comprised of a AgCl reference electrode, gold working electrode, and CarboPac PA1 guard (4×50 mm) and analytical columns (4×250 mm). Mobile phases were degassed and pressurized with 3 to 5 psi helium, and oligosaccharides eluted from the columns using various gradients detailed in Tables 3-5 at a flow rate of 1.0 mL/min. The column and detector were held at 20±2° C. Oligosaccharide identification and concentration were determined from quadratic fit (not forced through the origin) standard curves. […]
2′-FL fortification was calculated to be 0.2 g/L. Testing samples were reconstituted at 20 mL to 100 ml, with water, and then filtered using a 0.2 μm PES membrane syringe filter.
LNnT fortification was calculated to be 0.256 g/L. Testing samples were reconstituted at 20 mL to 100 ml, with water, and then filtered using a 0.2 μm PES membrane syringe filter.
6′-SL fortification was calculated to be 0.2 g/L. Testing samples were reconstituted at 20 mL to 100 mL with water, and then filtered using a 0.2 μm PES membrane syringe filter.

[3] = 6′-SL ORC pH 3.5, 0 D, sterile, average
[4] = 6′-SL ORC pH 3.5, 0 D, sterile, samples 1, 2
[5] = 6′-SL ORC pH 3.5, 0 D, unsterile, average
[6] = 6′-SL ORC pH 3.5, 0 D, unsterile, samples 1, 2
[7] = 6′-SL ORC pH 3.5, 3 WK, sterile, average
[8] = 6′-SL ORC pH 3.5, 3 WK, sterile, samples 1, 2
[9] = 6′-SL ORC pH 3.5, 6 WK, sterile, average
[10] = 6′-SL ORC pH 3.5, 6 WK, sterile, samples 1, 2
[11] = 6′-SL ORC pH 3.5, 14 WK, sterile, average
[12] = 6′-SL ORC pH 3.5, 14 WK, sterile, samples 1, 2
[13] = 3-week after sterilization, average
[14] = 3-week after sterilization, samples 1, 2
[15] = sterile (after retort 217° F. 25 min), samples 1, 2
[16] = sterile (after retort), average

**Q.** Which “6′-SL” value [1, 3] does the source give for `CC(=O)N[C@H]1[C@H]([C@H](O)[C@H](O)CO)O[C@@](OC[C@H]2O[C@@H](O[C@H]3[C@H](O)[C@@H](O)[C@H](O)O[C@@H]3CO)[C@H](O)[C@@H](O)[C@H]2O)(C(=O)O)C[C@@H]1O` [6′-SL, 6′-sialyllactose] here?
**A.** 10.7 mg/L

**Q.** What about the Lactose [1, 3] of the same compound?
**A.** 149 mg/L

**Q.** And the Sialic acid [1, 3]?
**A.** 83.6 mg/L

**Q.** And the “% Remaining * (6′-SL)” value [1, 3]?
**A.** 5.35%

**Q.** What about the “6′-SL” value [1, 4] of the same compound?
**A.** 10.39 mg/L and 11 mg/L

**Q.** And the Lactose [1, 4]?
**A.** 149.4 mg/L

**Q.** And the Sialic acid [1, 4]?
**A.** 83.46 mg/L and 83.79 mg/L

**Q.** What about the “% Remaining * (6′-SL)” value [1, 4] of the same compound?
**A.** 5.195% and 5.502%

**Q.** What about the “6′-SL” value [1, 5] of the same compound?
**A.** 173 mg/L

**Q.** What about the Lactose [1, 5] of the same compound?
**A.** 24.6 mg/L

**Q.** What about the Sialic acid [1, 5] of the same compound?
**A.** 4.95 mg/L

**Q.** And the “% Remaining * (6′-SL)” value [1, 5]?
**A.** 86.3%

**Q.** And the “6′-SL” value [1, 6]?
**A.** 170.8 mg/L and 174.5 mg/L

**Q.** And the Lactose [1, 6]?
**A.** 24.22 mg/L and 24.9 mg/L

**Q.** And the Sialic acid [1, 6]?
**A.** 5.055 mg/L and 4.842 mg/L

**Q.** What about the “% Remaining * (6′-SL)” value [1, 6] of the same compound?
**A.** 85.42% and 87.24%

**Q.** And the “6′-SL” value [1, 7]?
**A.** 10.5 mg/L

**Q.** And the “% Remaining ** (6′-SL)” value [1, 7]?
**A.** 5.27%

**Q.** What about the Lactose [1, 7] of the same compound?
**A.** 153 mg/L

**Q.** And the Sialic acid [1, 7]?
**A.** 82.9 mg/L

**Q.** What about the “6′-SL” value [1, 8] of the same compound?
**A.** 10.5 mg/L and 10.6 mg/L

**Q.** And the “% Remaining ** (6′-SL)” value [1, 8]?
**A.** 5.249% and 5.3%

**Q.** What about the Lactose [1, 8] of the same compound?
**A.** 152.2 mg/L and 154.0 mg/L

**Q.** What about the Sialic acid [1, 8] of the same compound?
**A.** 82.89 mg/L and 82.96 mg/L

**Q.** What about the “6′-SL” value [1, 9] of the same compound?
**A.** 10.5 mg/L

**Q.** What about the “% Remaining ** (6′-SL)” value [1, 9] of the same compound?
**A.** 5.26%

**Q.** What about the Lactose [1, 9] of the same compound?
**A.** 172 mg/L

**Q.** And the Sialic acid [1, 9]?
**A.** 98 mg/L

**Q.** What about the “6′-SL” value [1, 10] of the same compound?
**A.** 10.47 mg/L and 10.59 mg/L

**Q.** What about the “% Remaining ** (6′-SL)” value [1, 10] of the same compound?
**A.** 5.234% and 5.295%

**Q.** What about the Lactose [1, 10] of the same compound?
**A.** 170.5 mg/L and 174.4 mg/L

**Q.** And the Sialic acid [1, 10]?
**A.** 98.77 mg/L and 97.2 mg/L

**Q.** What about the “6′-SL” value [1, 11] of the same compound?
**A.** 4.6 mg/L

**Q.** What about the “% Remaining ** (6′-SL)” value [1, 11] of the same compound?
**A.** 2.31%

**Q.** And the Lactose [1, 11]?
**A.** 152 mg/L

**Q.** And the Sialic acid [1, 11]?
**A.** 91.7 mg/L

**Q.** And the “6′-SL” value [1, 12]?
**A.** 4.66 mg/L and 4.57 mg/L

**Q.** And the “% Remaining ** (6′-SL)” value [1, 12]?
**A.** 2.330% and 2.285%

**Q.** And the Lactose [1, 12]?
**A.** 149.5 mg/L and 155.1 mg/L

**Q.** And the Sialic acid [1, 12]?
**A.** 91.10 mg/L and 92.22 mg/L

**Q.** What about the “Concentration as % of the target fortification amount” value ([1]; 6′-SL ORC pH 3.5, at 14 weeks) of the same compound?
**A.** 2.3%

**Q.** And the “Discoloration relative to the other test compositions” value ([1]; ORC pH 3.5, heat sterilized)?
**A.** Slight discoloration

**Q.** And the “Change of oligosaccharide level over the course of the study (in words)” value ([1]; ORC pH 3.5, heat sterilized, 0 D to 14 weeks)?
**A.** significant decrease

**Q.** What about the “6′-SL” value [2, 13] of the same compound?
**A.** 10.5 mg/L

**Q.** What about the Lactose [2, 13] of the same compound?
**A.** 153 mg/L

**Q.** What about the “Sialic acid” value [2, 13] of the same compound?
**A.** 82.9 mg/L

**Q.** What about the “% Theoretical 6′-SL” value [2, 13] of the same compound?
**A.** 5.27%

**Q.** What about the “6′-SL” value [2, 14] of the same compound?
**A.** 10.5 mg/L and 10.6 mg/L

**Q.** And the Lactose [2, 14]?
**A.** 152.2 mg/L and 154 mg/L

**Q.** What about the “Sialic acid” value [2, 14] of the same compound?
**A.** 82.89 mg/L and 82.96 mg/L

**Q.** What about the “% Theoretical 6′-SL” value [2, 14] of the same compound?
**A.** 5.249% and 5.3%

**Q.** What about the “6′-SL” value [2, 15] of the same compound?
**A.** 10.39 mg/L and 11.0 mg/L

**Q.** And the Lactose [2, 15]?
**A.** 149.4 mg/L

**Q.** And the “Sialic acid” value [2, 15]?
**A.** 83.46 mg/L and 83.79 mg/L

**Q.** And the “6′-SL” value [2, 16]?
**A.** 10.7 mg/L

**Q.** What about the Lactose [2, 16] of the same compound?
**A.** 149 mg/L

**Q.** And the “Sialic acid” value [2, 16]?
**A.** 83.6 mg/L

**Q.** What about the “6′-SL” value ([2]; unsterile, average) of the same compound?
**A.** 173 mg/L

**Q.** What about the Lactose ([2]; unsterile, average) of the same compound?
**A.** 24.6 mg/L

**Q.** What about the “Sialic acid” value ([2]; unsterile, average) of the same compound?
**A.** 4.95 mg/L

**Q.** What about the “6′-SL” value ([2]; unsterile, samples 1, 2) of the same compound?
**A.** 170.8 mg/L and 174.5 mg/L

**Q.** And the Lactose ([2]; unsterile, samples 1, 2)?
**A.** 24.22 mg/L and 24.90 mg/L

**Q.** What about the “Sialic acid” value ([2]; unsterile, samples 1, 2) of the same compound?
**A.** 5.055 mg/L and 4.842 mg/L

**Q.** What about the “Further loss 3-weeks after sterilization, relative to sterilized sample (in words)” value ([2]; oral rehydration solution pH 3.5, 3-weeks after sterilization) of the same compound?
**A.** No additional loss

**Q.** What about the “Loss of oligosaccharide during sterilization (in words)” value ([2]; oral rehydration solution pH 3.5, retort 217° F. 25 min) of the same compound?
**A.** Significant loss
